Results: US12139487B2, “Compounds and uses thereof” (Foghorn Therapeutics Inc., priority 2022, dated 2024)

Tests used:
BRG-1 = target: T1, BRG-1 (Homo sapiens, UniProt P51532); experiment: ATPase catalytic activity assay (ADP-Glo), BRG-1; format: biochemical; conditions: Table 10, read-out: BRG1 IC50
T1 construct: made in house; host or cells: High Five insect cells
In short: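 Signal reflects ADP produced by the enzyme, quantified as luminescence after unused ATP is cleared and ADP is reconverted to ATP for the luciferase reaction; both steps run at room temperature, 40 and 60 min respectively.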

BRM = target: T2, BRM (Homo sapiens, UniProt P51531); experiment: ATPase catalytic activity assay (ADP-Glo), BRM; format: biochemical; conditions: Table 10; for Ratio (BRG1 IC50 (μM) divided by BRM IC50 (μM)): ATPase assay, selectivity BRG1/BRM; for IC50: ATPase catalytic activity assay (ADP-Glo)
T2 construct: made in house; host or cells: High Five insect cells
T2 sequence (P51531 whole entry): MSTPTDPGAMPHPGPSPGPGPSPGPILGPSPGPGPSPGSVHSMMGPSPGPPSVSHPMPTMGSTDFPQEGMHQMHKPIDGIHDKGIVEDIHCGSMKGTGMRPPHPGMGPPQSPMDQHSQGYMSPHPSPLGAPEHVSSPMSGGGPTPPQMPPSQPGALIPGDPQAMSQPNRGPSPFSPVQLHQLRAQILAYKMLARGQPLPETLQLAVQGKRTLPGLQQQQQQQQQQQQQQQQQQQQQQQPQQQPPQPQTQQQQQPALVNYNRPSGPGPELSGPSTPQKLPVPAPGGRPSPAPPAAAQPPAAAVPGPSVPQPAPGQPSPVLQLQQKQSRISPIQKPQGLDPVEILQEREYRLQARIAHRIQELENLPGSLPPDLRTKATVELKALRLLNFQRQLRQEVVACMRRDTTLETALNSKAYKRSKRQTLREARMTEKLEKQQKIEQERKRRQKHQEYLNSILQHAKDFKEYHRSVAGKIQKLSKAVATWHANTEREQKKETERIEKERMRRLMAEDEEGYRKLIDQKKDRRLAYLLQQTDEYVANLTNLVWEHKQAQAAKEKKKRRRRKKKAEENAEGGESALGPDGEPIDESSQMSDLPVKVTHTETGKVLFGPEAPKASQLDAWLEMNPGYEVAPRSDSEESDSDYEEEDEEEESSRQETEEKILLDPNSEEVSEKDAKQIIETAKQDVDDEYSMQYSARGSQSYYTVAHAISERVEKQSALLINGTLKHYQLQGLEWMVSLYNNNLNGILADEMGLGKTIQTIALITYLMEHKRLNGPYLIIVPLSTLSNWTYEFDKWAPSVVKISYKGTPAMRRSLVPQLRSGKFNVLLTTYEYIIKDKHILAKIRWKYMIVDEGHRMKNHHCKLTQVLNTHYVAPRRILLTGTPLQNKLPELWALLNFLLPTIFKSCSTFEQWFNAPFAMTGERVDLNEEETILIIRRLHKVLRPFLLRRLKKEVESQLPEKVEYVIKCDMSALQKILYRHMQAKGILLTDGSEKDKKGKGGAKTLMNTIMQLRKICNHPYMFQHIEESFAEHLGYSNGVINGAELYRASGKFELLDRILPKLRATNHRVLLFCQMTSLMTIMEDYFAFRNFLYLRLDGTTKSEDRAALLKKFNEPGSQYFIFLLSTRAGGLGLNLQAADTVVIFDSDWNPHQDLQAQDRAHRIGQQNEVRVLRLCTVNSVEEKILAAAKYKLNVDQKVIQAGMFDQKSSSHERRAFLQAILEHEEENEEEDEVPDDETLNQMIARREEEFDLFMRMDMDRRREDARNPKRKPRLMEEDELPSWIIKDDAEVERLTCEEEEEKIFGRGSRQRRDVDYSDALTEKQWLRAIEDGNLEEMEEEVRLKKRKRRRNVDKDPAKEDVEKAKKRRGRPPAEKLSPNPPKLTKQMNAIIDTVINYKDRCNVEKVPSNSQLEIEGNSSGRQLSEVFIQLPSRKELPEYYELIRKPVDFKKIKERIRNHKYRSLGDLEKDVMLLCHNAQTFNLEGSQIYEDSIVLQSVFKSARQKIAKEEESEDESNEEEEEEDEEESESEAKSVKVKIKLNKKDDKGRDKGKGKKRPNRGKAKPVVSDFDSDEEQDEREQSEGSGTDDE
In short: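 Reaction holds 30 nM BRM, 20 nM salmon sperm DNA and 400 μM ATP in 20 mM Tris pH 8, 20 mM MgCl2, 50 mM NaCl, 0.1% Tween-20, 1 mM DTT. Incubated 1 h at room temperature. ADP formed is detected by ADP-Glo luminescence.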

T1 sequence (P51532 whole entry): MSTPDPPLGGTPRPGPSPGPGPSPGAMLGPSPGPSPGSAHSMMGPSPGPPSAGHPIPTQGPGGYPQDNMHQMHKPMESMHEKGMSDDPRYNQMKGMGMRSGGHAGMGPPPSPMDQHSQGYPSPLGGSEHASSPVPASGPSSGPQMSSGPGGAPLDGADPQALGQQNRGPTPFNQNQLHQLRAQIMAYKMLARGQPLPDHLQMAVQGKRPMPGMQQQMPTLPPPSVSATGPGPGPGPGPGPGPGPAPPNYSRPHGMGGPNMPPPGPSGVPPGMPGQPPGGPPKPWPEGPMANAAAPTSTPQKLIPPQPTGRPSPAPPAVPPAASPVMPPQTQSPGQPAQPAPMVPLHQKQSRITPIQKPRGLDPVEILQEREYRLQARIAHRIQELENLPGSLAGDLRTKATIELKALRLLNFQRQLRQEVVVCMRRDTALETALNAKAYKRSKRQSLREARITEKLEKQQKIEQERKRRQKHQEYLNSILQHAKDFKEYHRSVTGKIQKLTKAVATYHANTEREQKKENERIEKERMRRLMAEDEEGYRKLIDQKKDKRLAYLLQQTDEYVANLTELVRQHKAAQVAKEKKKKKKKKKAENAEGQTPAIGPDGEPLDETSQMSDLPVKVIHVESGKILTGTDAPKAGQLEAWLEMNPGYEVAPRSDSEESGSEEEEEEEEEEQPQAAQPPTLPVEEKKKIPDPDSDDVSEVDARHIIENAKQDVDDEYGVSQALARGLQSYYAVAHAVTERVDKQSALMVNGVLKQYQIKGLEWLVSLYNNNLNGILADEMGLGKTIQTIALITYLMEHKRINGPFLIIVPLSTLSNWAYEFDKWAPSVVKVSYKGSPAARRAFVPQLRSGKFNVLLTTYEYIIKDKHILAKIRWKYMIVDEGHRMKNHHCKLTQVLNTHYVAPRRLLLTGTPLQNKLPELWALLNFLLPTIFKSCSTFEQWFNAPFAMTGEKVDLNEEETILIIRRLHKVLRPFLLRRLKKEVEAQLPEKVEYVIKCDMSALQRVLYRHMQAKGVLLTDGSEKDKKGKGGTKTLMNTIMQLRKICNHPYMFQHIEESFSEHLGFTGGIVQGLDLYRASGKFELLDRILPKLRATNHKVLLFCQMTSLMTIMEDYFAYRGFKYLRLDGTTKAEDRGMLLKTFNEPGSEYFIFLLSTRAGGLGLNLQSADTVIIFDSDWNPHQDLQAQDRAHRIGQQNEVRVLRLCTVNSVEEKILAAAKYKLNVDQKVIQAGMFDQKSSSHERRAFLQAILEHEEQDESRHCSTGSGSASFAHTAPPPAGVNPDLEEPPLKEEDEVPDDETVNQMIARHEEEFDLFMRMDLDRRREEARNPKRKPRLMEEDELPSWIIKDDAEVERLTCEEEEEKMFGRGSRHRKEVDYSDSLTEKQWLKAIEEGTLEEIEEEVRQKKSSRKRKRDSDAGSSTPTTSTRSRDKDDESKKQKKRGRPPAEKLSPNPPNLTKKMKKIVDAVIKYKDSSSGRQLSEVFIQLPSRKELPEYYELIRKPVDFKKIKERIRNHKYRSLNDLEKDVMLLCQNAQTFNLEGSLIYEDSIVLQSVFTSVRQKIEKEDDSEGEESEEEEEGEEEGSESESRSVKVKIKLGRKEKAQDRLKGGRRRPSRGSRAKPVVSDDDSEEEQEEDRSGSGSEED

| SMILES | IC50 (BRG-1) | Ratio (BRG1 IC50 (μM) divided by BRM IC50 (μM)) (BRM) | IC50 (BRM) |
| --- | --- | --- | --- |
| O=C(NCc1cc2nc(-c3csnc3OC(F)F)ccc2cn1)c1cc(F)c2c(c1)S(=O)(=O)[C@@H](F)CCO2 [Compound 155] | 88 nM | 19.80 | 5 nM |
| O=C(NCc1cc2nc(N3CCOc4cc(C(F)F)cnc43)ccc2cn1)c1cc(F)c2c(c1)S(=O)(=O)[C@@H](F)COC2 [Compound 32] | 36.7 nM | 18.96 | 1.9 nM |
| COc1nc([C@@H](F)CF)ccc1-c1ccc2cnc(CNC(=O)c3cc(F)c4c(c3)S(=O)(=O)[C@@H](F)COC4)cc2n1 [Compound 46] | 47.7 nM | 20.83 | 2.3 nM |
| CCOc1cccc(-c2ccc3cnc(CNC(=O)c4cc(F)c5c(c4)S(=O)(=O)[C@@H](F)CCO5)cc3n2)n1 [Compound 170] | 122 nM | 24.59 | 5.3 nM |
| Cc1cc(C(=O)NCc2cc3nc(-c4cccc(N5C[C@@H](C)O[C@@H](C)C5)n4)ccc3cn2)cc2c1OCC[C@H](F)S2(=O)=O [Compound 100] | 44.8 nM | 13.01 | 3.5 nM |
| CCOc1nc(C(F)F)ccc1-c1ccc2cnc(CNC(=O)c3cc(F)c4c(c3)S(=O)(=O)[C@@H](F)CCO4)cc2n1 [Compound 151] | 76.6 nM | 16.49 | 4.9 nM |
| COc1cc(F)ccc1-c1ccc2cnc(CNC(=O)c3cc(F)c4c(c3)S(=O)(=O)[C@@H](F)CCO4)cc2n1 [Compound 158] | 86.7 nM | 17.08 | 5.1 nM |
| COc1nc([C@@H](F)C(F)F)ccc1-c1ccc2cnc(CNC(=O)c3cc(F)c4c(c3)S(=O)(=O)[C@@H](F)CCO4)cc2n1 [Compound 298] | 143 nM | 14.40 | 9.9 nM |
| O=C(NCc1cc2nc(-c3cccc(N4CCC4)n3)ccc2cn1)c1cc(F)c2c(c1)S(=O)(=O)[C@@H](F)CCO2 [Compound 117] | 87.1 nM | 21.61 | 4 nM |
| COc1nc(C(F)F)ccc1-c1ccc2cnc(CNC(=O)c3cc(C)c4c(c3)S(=O)(=O)[C@@H](F)COC4)cc2n1 [Compound 131] | 70.8 nM | 17.91 | 4.5 nM |
| COc1nc(CC(F)F)ccc1-c1ccc2cnc(CNC(=O)c3cc(F)c4c(c3)S(=O)(=O)[C@@H](F)CCO4)cc2n1 [Compound 292] | 226 nM | 23.12 | 9.8 nM |
| C[C@@H]1CN(c2cccc(-c3ccc4cnc(CNC(=O)c5ccc6c(c5)S(=O)(=O)[C@@H](F)CN(C)C6)cc4n3)n2)C[C@H](C)O1 (single isomer, unassigned) [Compound 317] | 1760 nM | 7.78 | 227 nM |
| COc1ccc(-c2ccc3cnc(CNC(=O)c4cc(F)c5c(c4)S(=O)(=O)[C@@H](F)CCO5)cc3n2)nc1C1CC1 [Compound 181] | 146 nM | 29.09 | 5.7 nM |
| O=C(NCc1cc2nc(N3CCOc4cc(N5C[C@@H](F)[C@H](F)C5)cnc43)ccc2cn1)c1cc(Cl)c2c(c1)S(=O)(=O)[C@@H](F)COC2 [Compound 121] | 56.7 nM | 13.86 | 4.1 nM |
| COc1ccc(-c2ccc3cnc(CNC(=O)c4cc(F)c5c(c4)S(=O)(=O)[C@@H](F)CCO5)cc3n2)nc1[C@@H]1CC1(F)F [Compound 144] | 109 nM | 25.02 | 4.8 nM |
| O=C(NCc1cc2nc(-c3ccnc(N4CCCC4)n3)ccc2cn1)c1cc(F)c2c(c1)S(=O)(=O)[C@@H](F)CCO2 [Compound 188] | 132 nM | 20.95 | 5.8 nM |
| Cc1cc(C(=O)NCc2cc3nc(N4CCOc5cc(N6CC[C@H]6C)cnc54)ccc3cn2)cc2c1COC[C@H](F)S2(=O)=O [Compound 28] | 42.2 nM | 22.66 | 1.8 nM |
| CCOc1ccc(-c2ccc3cnc(CNC(=O)c4cc(F)c5c(c4)S(=O)(=O)[C@@H](F)CCO5)cc3n2)nc1[C@H]1CC1(F)F [Compound 313] | 554 nM | 36.05 | 13 nM |
| COc1nc(C(F)F)ccc1-c1ccc2cnc(CNC(=O)c3cc(Cl)c4c(c3)S(=O)(=O)[C@@H](F)CCO4)cc2n1 [Compound 306] | 360 nM | 32.74 | 10.3 nM |
| C[C@@H]1CN(c2cccc(-c3ccc4cnc(CNC(=O)c5cc(C(F)F)c6c(c5)S(=O)(=O)[C@@H](F)CCO6)cc4n3)n2)C[C@H](C)O1 [Compound 64] | 29.8 nM | 11.59 | 2.6 nM |
| O=C(NCc1cc2nc(-c3ccnc([C@H]4CC4(F)F)n3)ccc2cn1)c1cc(F)c2c(c1)S(=O)(=O)[C@@H](F)CCO2 [Compound 195] | 168 nM | 24.88 | 5.9 nM |
| COc1nc(C(F)F)ccc1-c1ccc2cnc(CNC(=O)c3ccc4c(c3)S(=O)(=O)[C@@H](F)CO[C@H]4C)cc2n1 [Compound 197] | 84.6 nM | 14.25 | 6 nM |
| COc1nc([C@H](F)C(F)F)ccc1-c1ccc2cnc(CNC(=O)c3cc(F)c4c(c3)S(=O)(=O)[C@@H](F)CCO4)cc2n1 [Compound 287] | 113 nM | 11.77 | 9.6 nM |
| O=C(NCc1cc2nc(N3CCOc4ccc([C@@H]5C[C@H]5F)nc43)ccc2cn1)c1cc(F)c2c(c1)S(=O)(=O)[C@@H](F)COC2 [Compound 207] | 113 nM | 18.77 | 6.2 nM |

Now from value to compound:

| IC50 (BRG-1) | Ratio (BRG1 IC50 (μM) divided by BRM IC50 (μM)) (BRM) | IC50 (BRM) | SMILES |
| --- | --- | --- | --- |
| 125 nM | 12.14 | 10.3 nM | COc1cnc2c(c1)CCCN2c1ccc2cnc(CNC(=O)c3cc(F)c4c(c3)S(=O)(=O)[C@@H](F)CCO4)cc2c1 [Compound 305] |
| 245 nM | 25.74 | 7.8 nM | O=C(NCc1cc2nc(N3CCOc4cc(N5CC(F)(F)C5)cnc43)ccc2cn1)c1cc(F)c2c(c1)S(=O)(=O)[C@@H](F)CCO2 [Compound 244] |
| 174 nM | 16.68 | 9.8 nM | COCCOc1nccc2c1CCCN2c1ccc2cnc(CNC(=O)c3cc(F)c4c(c3)S(=O)(=O)[C@@H](F)CCO4)cc2n1 [Compound 295] |
| 76.6 nM | 13.32 | 5.8 nM | O=C(NCc1cc2nc(N3CCOc4cc(N5CCC5)cnc43)ccc2cn1)c1ccc2c(c1)S(=O)(=O)[C@@H](F)CCO2 [Compound 187] |
| 58.1 nM | 11.98 | 4.8 nM | COCc1ccnc2c1OCCN2c1ccc2cnc(CNC(=O)c3cc(F)c4c(c3)S(=O)(=O)[C@@H](F)CCO4)cc2n1 [Compound 147] |
| 94.3 nM | 10.16 | 9.3 nM | C#Cc1cnc2c(c1)OCCN2c1ccc2cnc(CNC(=O)c3cc(F)c4c(c3)S(=O)(=O)[C@@H](F)CCO4)cc2n1 [Compound 281] |
| 74.1 nM | 13.09 | 5.5 nM | O=C(NCc1cc2nc(N3CCCc4cc(N5CCOCC5)cnc43)ccc2cn1)c1cc(F)c2c(c1)S(=O)(=O)[C@@H](F)CCO2 [Compound 172] |
| 168 nM | 17.20 | 9.8 nM | O=C(NCc1cc2nc(N3CCCc4cc(C5COC5)cnc43)ccc2cn1)c1cc(F)c2c(c1)S(=O)(=O)[C@@H](F)CCO2 [Compound 293] |
| 143 nM | 22.18 | 5.3 nM | C[C@@H]1CCN1c1cnc2c(c1)OCCN2c1ccc2cnc(CNC(=O)c3cc(Cl)c4c(c3)S(=O)(=O)[C@@H](F)CCO4)cc2n1 [Compound 165] |
| 110 nM | 21.73 | 5.7 nM | O=C(NCc1cc2nc(N3CCOc4ccc(C(F)F)nc43)ccc2cn1)c1cc(F)c2c(c1)S(=O)(=O)[C@@H](F)CCO2 [Compound 185] |
| 36.7 nM | 9.68 | 3.7 nM | CN(CC(F)F)c1cnc2c(c1)OCCN2c1ccc2cnc(CNC(=O)c3cc(F)c4c(c3)S(=O)(=O)[C@@H](F)CCO4)cc2n1 [Compound 105] |
| 89.7 nM | 10.51 | 8.5 nM | CC1CN(c2ccnc3c2OCCN3c2ccc3cnc(CNC(=O)c4cc(F)c5c(c4)S(=O)(=O)[C@@H](F)CCO5)cc3n2)C1 [Compound 263] |
| 66.5 nM | 11.37 | 5.9 nM | C[C@@H]1C[C@@H]1c1cnc2c(c1)OCCN2c1ccc2cnc(CNC(=O)c3cc(F)c4c(c3)S(=O)(=O)[C@@H](F)CCO4)cc2n1 [Compound 192] |
| 44.7 nM | 26.66 | 1.6 nM | C[C@H]1C[C@@H]1c1ccc2c(n1)N(c1ccc3cnc(CNC(=O)c4cc(F)c5c(c4)S(=O)(=O)[C@@H](F)CCO5)cc3n1)CCO2 [Compound 20] |
| 164 nM | 13.90 | 11.8 nM | O=C(NCc1cc2nc(N3CCOc4cc(N5CC[C@H]5CF)cnc43)ccc2cn1)c1cc(Br)c2c(c1)S(=O)(=O)[C@@H](F)CCO2 [Compound 323] |
| 58.3 nM | 10.91 | 5.3 nM | O=C(NCc1cc2nc(N3CCCc4c(OC(F)F)ccnc43)ccc2cn1)c1cc(F)c2c(c1)S(=O)(=O)[C@@H](F)CCO2 [Compound 169] |
